The results in this text go back to patent publication US20260102383A1, “LPAR1 Inhibitors” (AbbVie Inc., priority 2024, published 2026).

pIC50: −log10 of the molar value. Read-outs that look alike come from different tables or passages of the source.

This test deals with T1, human LPAR1 (Homo sapiens, UniProt Q92633).
T1 construct: host or cells: TangoEDG2-bla U2OS cells
Nature of the test: Arrestin assay (Arrestin Reporter EDG2-bla U2OS), inhibition of LPA-stimulated signal. Format: cell-based. Particulars: TangoEDG2-bla U2OS cells expressing human LPAR1, 0.25 μM LPA. The gist of the method:
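IC50 comes from a variable-slope 4-parameter fit of % inhibition, calculated from the beta-lactamase FRET ratio (emission 460/530 nm, excitation 409 nm, 2 h development at RT). Compounds, 10 μM down to 0.00006 μM in 3-fold steps, were given 1 h before 0.25 μM final LPA for 3 h in TangoEDG2-bla U2OS cells.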

[1] abbreviates: read-out: Arrestin Reporter EDG2-bla U2OS Human Merged IC50.

T1 sequence (Q92633 whole entry): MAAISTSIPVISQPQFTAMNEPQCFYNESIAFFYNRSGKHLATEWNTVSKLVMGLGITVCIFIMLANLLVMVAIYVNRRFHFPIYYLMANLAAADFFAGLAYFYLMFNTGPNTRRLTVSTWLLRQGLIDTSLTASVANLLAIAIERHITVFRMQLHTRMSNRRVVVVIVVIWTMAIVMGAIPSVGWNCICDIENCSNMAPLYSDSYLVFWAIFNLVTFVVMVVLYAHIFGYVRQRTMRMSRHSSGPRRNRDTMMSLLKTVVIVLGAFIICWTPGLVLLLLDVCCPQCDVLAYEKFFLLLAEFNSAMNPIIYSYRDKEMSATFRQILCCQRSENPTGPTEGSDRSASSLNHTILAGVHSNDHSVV

What is called pIC50 is the negative decadic logarithm of the IC50, by convention in mol/L. As for `CC(C)c1ccnn1C1(C(=O)Nc2ccc(Cl)cc2OC(F)F)CCN(C[C@H](C(=O)O)N2C[C@@H](C)O[C@H](C)C2)CC1` [Compound 159, (2R)-3-[4-[[4-chloro-2-(difluoromethoxy)phenyl]carbamoyl]-4-(5-isopropylpyrazol-1-yl)-1-piperidyl]-2-[(2R,6R)-2,6-dimethylmorpholin-4-yl]propanoic acid], the pIC50 under setting [1] was 6.49.

As for `COC1CCC(C(CN2CCC(C(=O)Nc3ccc(Cl)cc3OC(F)F)(n3nccc3C(C)C)CC2)C(=O)O)CC1` (centres unmarked) [Compound 145, 3-[4-[[4-chloro-2-(difluoromethoxy)phenyl]carbamoyl]-4-(5-isopropylpyrazol-1-yl)-1-piperidyl]-2-(4-methoxycyclohexyl) propanoic acid], under setting [1], the pIC50 was 7.39.

For the molecule `CCOC(=O)N1CC(CN2CCC(C(=O)Nc3ccc(Cl)cc3OC(F)F)(n3nccc3C(C)C)CC2)(C(=O)O)C1` [Compound 97, 3-[[4-[[4-chloro-2-(difluoromethoxy)phenyl]carbamoyl]-4-(5-isopropylpyrazol-1-yl)-1-piperidyl]methyl]-1-ethoxycarbonyl-azetidine-3-carboxylic acid], the pIC50 under setting [1] was 6.91.

For `COc1ccc(C(C)(CN2CCC(C(=O)Nc3ccc(Cl)cc3OC(F)F)(n3nccc3C(C)C)CC2)C(=O)O)cc1` (centres unmarked) [Compound 50, 3-[4-[[4-chloro-2-(difluoromethoxy)phenyl]carbamoyl]-4-(5-isopropylpyrazol-1-yl)-1-piperidyl]-2-(4-methoxyphenyl)-2-methyl-propanoic acid], the pIC50 under setting [1] is 7.19.

For the molecule `COC[C@H](CN1CCC(C(=O)Nc2ccc(Cl)cc2OC(F)F)(n2ncc(Cl)c2C(C)C)CC1)C(=O)O` [Compound 205, (2S)-2-[[4-[[4-chloro-2-(difluoromethoxy)phenyl]carbamoyl]-4-(4-chloro-5-isopropyl-pyrazol-1-yl)-1-piperidyl]methyl]-3-methoxy-propanoic acid], under setting [1], the pIC50 was 7.75.

Turning to `CC(C)c1c(F)cnn1C1(C(=O)Nc2ccc(Cl)cc2OC(F)F)CCN([C@H]2CO[C@@H](C(=O)O)C2)CC1` [Compound 214, (2R,4R)-4-[4-[[4-chloro-2-(difluoromethoxy)phenyl]carbamoyl]-4-(4-fluoro-5-isopropyl-pyrazol-1-yl)-1-piperidyl]tetrahydrofuran-2-carboxylic acid], the pIC50 under setting [1] was 7.12.

As for `CC(C)c1ccnn1C1(C(=O)Nc2ccc(Cl)cc2OC(F)F)CCN(Cc2cccc(C(=O)O)n2)CC1` [Compound 36, 6-[[4-[[4-chloro-2-(difluoromethoxy)phenyl]carbamoyl]-4-(5-isopropylpyrazol-1-yl)-1-piperidyl]methyl]pyridine-2-carboxylic acid], under setting [1], the pIC50 was 7.26.

Take `CC(C)c1ccnn1C1(C(=O)Nc2ccc(Cl)cc2OC(F)F)CCN(CC2(C(=O)O)CCN(C(=O)C3CCC3)CC2)CC1` [Compound 44, 4-[[4-[[4-chloro-2-(difluoromethoxy)phenyl]carbamoyl]-4-(5-isopropylpyrazol-1-yl)-1-piperidyl]methyl]-1-(cyclobutanecarbonyl) piperidine-4-carboxylic acid]: under setting [1], the pIC50 is 7.52.

In the case of `CC(C)CC(=O)N1CCC(CN2CCC(C(=O)Nc3ccc(Cl)cc3OC(F)F)(n3nccc3C(C)C)CC2)(C(=O)O)CC1` [Compound 82, 4-[[4-[[4-chloro-2-(difluoromethoxy)phenyl]carbamoyl]-4-(5-isopropylpyrazol-1-yl)-1-piperidyl]methyl]-1-(3-methylbutanoyl)piperidine-4-carboxylic acid], the pIC50 under setting [1] was 7.66.

For `CC1(C)OCc2cnn(C3(C(=O)Nc4ccc(Cl)cc4OC(F)F)CCN(CC4(C(=O)O)CCOCC4)CC3)c21` [Compound 84, 4-[[4-[[4-chloro-2-(difluoromethoxy)phenyl]carbamoyl]-4-(6,6-dimethyl-4H-furo[3,4-c]pyrazol-1-yl)-1-piperidyl]methyl]tetrahydropyran-4-carboxylic acid], the pIC50 (read-out: Arrestin Reporter EDG2-bla U2OS Human IC50) was 7.24.

For `CC(C)c1ccnn1C1(C(=O)Nc2ccc(Cl)cc2OC(F)F)CCN(Cc2nc(C(=O)O)cs2)CC1` [Compound 37, 2-[[4-[[4-chloro-2-(difluoromethoxy)phenyl]carbamoyl]-4-(5-isopropylpyrazol-1-yl)-1-piperidyl]methyl]thiazole-4-carboxylic acid], the pIC50 under setting [1] was 7.84.

Take `CCOC[C@@H](CN1CCC(C(=O)Nc2ccc(Cl)cc2OC(F)F)(n2nccc2C(C)C)CC1)C(=O)O` [Compound 231, (2R)-2-[[4-[[4-chloro-2-(difluoromethoxy)phenyl]carbamoyl]-4-(5-isopropylpyrazol-1-yl)-1-piperidyl]methyl]-3-ethoxy-propanoic acid]: under setting [1], the pIC50 is 7.85.

In the case of `CC(C)c1ccnn1C1(C(=O)Nc2ccc(Cl)cc2OC(F)F)CCN([C@H]2C[C@@](C(=O)O)(C(F)F)C2)CC1` [Compound 220, (1s,3s)-3-[4-[[4-chloro-2-(difluoromethoxy)phenyl]carbamoyl]-4-(5-isopropylpyrazol-1-yl)-1-piperidyl]-1-(difluoromethyl) cyclobutanccarboxylic acid], the pIC50 under setting [1] is 7.15.

`CC(C)c1ccnn1C1(C(=O)Nc2ccc(Cl)cc2OC(F)F)CCN(C[C@H](CC#N)C(=O)O)CC1` (single isomer, unassigned) [Compound 163]: the pIC50 under setting [1] is 7.41.

As for `COCC[C@H](CN1CCC(C(=O)Nc2ccc(Cl)cc2OC(F)F)(n2nccc2C(C)C)CC1)C(=O)O` [Compound 157, (2R)-2-[[4-[[4-chloro-2-(difluoromethoxy)phenyl]carbamoyl]-4-(5-isopropylpyrazol-1-yl)-1-piperidyl]methyl]-4-methoxy-butanoic acid], under setting [1], the pIC50 is 7.27.

Turning to `CC(C)c1ccnn1C1(C(=O)Nc2ccc(Cl)cc2OC(F)F)CCN(C[C@@](C)(C(=O)O)C2CCOCC2)CC1` (single isomer, unassigned) [Compound 78, (2.5)-3-[4-[[4-chloro-2-(difluoromethoxy)phenyl]carbamoyl]-4-(5-isopropylpyrazol-1-yl)-1-piperidyl]-2-methyl-2-tetrahydropyran-4-yl-propanoic acid], under setting [1], the pIC50 was 7.32.

For the molecule `CC(C)c1ccnn1C1(C(=O)Nc2ccc(Cl)cc2OC(F)F)CCN(CC2(C(=O)O)CC=CC2)CC1` [Compound 74, 1-[[4-[[4-chloro-2-(difluoromethoxy)phenyl]carbamoyl]-4-(5-isopropylpyrazol-1-yl)-1-piperidyl]methyl]cyclopent-3-ene-1-carboxylic acid], under setting [1], the pIC50 is 7.97.

Regarding `CC(C)c1ccnn1C1(C(=O)Nc2ccc(Cl)cc2OC(F)F)CCN(C[C@](C)(O)C(=O)O)CC1` [Compound 236, (2S)-3-[4-[[4-chloro-2-(difluoromethoxy)phenyl]carbamoyl]-4-(5-isopropylpyrazol-1-yl)-1-piperidyl]-2-hydroxy-2-methyl-propanoic acid], the pIC50 under setting [1] is 7.19.

In the case of `COc1cccc(C(CN2CCC(C(=O)Nc3ccc(Cl)cc3OC(F)F)(n3nccc3C(C)C)CC2)C(=O)O)c1` (centres unmarked) [Compound 22, 3-[4-[[4-chloro-2-(difluoromethoxy)phenyl]carbamoyl]-4-(5-isopropylpyrazol-1-yl)-1-piperidyl]-2-(3-methoxyphenyl)propanoic acid], the pIC50 under setting [1] was 8.00.

For `CC(C)c1ccnn1C1(C(=O)Nc2ccc(Cl)cc2OC(F)F)CCN([C@H]2C[C@@](NS(C)(=O)=O)(C(=O)O)C2)CC1` [Compound 132, (1r,3r)-3-[4-[[4-chloro-2-(difluoromethoxy)phenyl]carbamoyl]-4-(5-isopropylpyrazol-1-yl)-1-piperidyl]-1-(methanesulfonamido) cyclobutanecarboxylic acid], under setting [1], the pIC50 is 6.75.

Turning to `CC(C)c1ccnn1C1(C(=O)Nc2ccc(Cl)cc2OC(F)F)CCN(C[C@@H](CO)C(=O)O)CC1` [Compound 182], the pIC50 under setting [1] was 7.44.

As to “(2S)-3-[4-[[4-chloro-2- (difluoromethoxy)phenyl] carbamoyl]-4-1(65)-6- methyl-5,6-dihydro-4H- cyclopenta[c]pyrazol-1- yl]-1-piperidyl]-2- tetrahydropyran-4-yl- propanoic acid [Compound 174]”, under setting [1], the pIC50 is 7.30.

Consider `CC(C)c1ccnn1C1(C(=O)Nc2ccc(Cl)cc2OC(F)F)CCN([C@H]2CO[C@@H](C(=O)O)C2)CC1` [Compound 139, (2R,4R)-4-[4-[[4-chloro-2-(difluoromethoxy)phenyl]carbamoyl]-4-(5-isopropylpyrazol-1-yl)-1-piperidyl]tetrahydrofuran-2-carboxylic acid], for which the negative-log IC50 (pIC50) under setting [1] is 7.27.

For `CC(C)c1ccnn1C1(C(=O)Nc2ccc(Cl)cc2OC(F)F)CCN(CC(CN2CCOC(F)(F)C2)C(=O)O)CC1` (centres unmarked) [Compound 237, 2-[[4-[[4-chloro-2-(difluoromethoxy)phenyl]carbamoyl]-4-(5-isopropylpyrazol-1-yl)-1-piperidyl]methyl]-3-(2,2-difluoromorpholin-4-yl)propanoic acid], under setting [1], the pIC50 is 7.78.

With `CO[C@]1(C(=O)O)C[C@@H](N2CCC(C(=O)Nc3ccc(Cl)cc3OC(F)F)(n3nccc3C(C)C)CC2)C1` (single isomer, unassigned) [Compound 194, (1r,3r)-3-[4-[[4-chloro-2-(difluoromethoxy)phenyl]carbamoyl]-4-(5-isopropylpyrazol-1-yl)-1-piperidyl]-1-methoxy-cyclobutanecarboxylic acid], the pIC50 under setting [1] was 7.04.

As to `CC(C)c1ccnn1C1(C(=O)Nc2ccc(Cl)cc2OC(F)F)CCN(C2(CC(=O)O)CCOCC2)CC1` [Compound 128, 2-[4-[4-[[4-chloro-2-(difluoromethoxy)phenyl]carbamoyl]-4-(5-isopropylpyrazol-1-yl)-1-piperidyl]tetrahydropyran-4-yl]acetic acid], the pIC50 under setting [1] is 7.25.
